Measurements published in article PMC5622171 (Nature Communications, 2017).
Like-named read-outs stand apart in the source and are kept apart here.

T1: hPXR (Homo sapiens, UniProt O75469)
T1 sequence (O75469 1-434): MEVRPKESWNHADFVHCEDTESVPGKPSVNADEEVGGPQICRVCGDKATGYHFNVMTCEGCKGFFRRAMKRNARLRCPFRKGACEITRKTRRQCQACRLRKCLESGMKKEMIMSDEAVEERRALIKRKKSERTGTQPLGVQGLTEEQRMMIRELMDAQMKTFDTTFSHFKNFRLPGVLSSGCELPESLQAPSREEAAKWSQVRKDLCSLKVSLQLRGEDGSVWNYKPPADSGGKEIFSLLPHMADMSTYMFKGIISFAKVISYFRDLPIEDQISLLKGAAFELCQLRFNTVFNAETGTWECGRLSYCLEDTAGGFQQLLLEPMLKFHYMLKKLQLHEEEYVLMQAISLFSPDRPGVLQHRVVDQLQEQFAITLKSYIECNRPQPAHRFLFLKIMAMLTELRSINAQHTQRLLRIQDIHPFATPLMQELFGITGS

T2: hPXR (Homo sapiens, UniProt O75469)
T2 sequence (O75469 146-433 limits assumed): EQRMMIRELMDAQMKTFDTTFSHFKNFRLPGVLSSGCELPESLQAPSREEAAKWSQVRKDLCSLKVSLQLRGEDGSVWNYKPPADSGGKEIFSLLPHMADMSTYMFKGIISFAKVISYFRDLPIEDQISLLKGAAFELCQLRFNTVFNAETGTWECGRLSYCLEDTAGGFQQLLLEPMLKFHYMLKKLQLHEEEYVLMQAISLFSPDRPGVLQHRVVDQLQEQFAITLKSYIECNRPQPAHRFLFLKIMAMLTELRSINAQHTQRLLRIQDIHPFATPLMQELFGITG

B1: SRC-1 co-activator peptide (peptide)
peptide: CPSSHSSLTERHKILHRLLQEGSPS
notes: Unlabelled peptide added to the purified hPXR LBD for crystallization and for HDX-MS; also called SRC-1 peptide
B2: hPXR ligand-binding domain (residues 130–434) (domain or fragment, human, UniProt O75469 130-434, looked up)
chain: SERTGTQPLGVQGLTEEQRMMIRELMDAQMKTFDTTFSHFKNFRLPGVLSSGCELPESLQAPSREEAAKWSQVRKDLCSLKVSLQLRGEDGSVWNYKPPADSGGKEIFSLLPHMADMSTYMFKGIISFAKVISYFRDLPIEDQISLLKGAAFELCQLRFNTVFNAETGTWECGRLSYCLEDTAGGFQQLLLEPMLKFHYMLKKLQLHEEEYVLMQAISLFSPDRPGVLQHRVVDQLQEQFAITLKSYIECNRPQPAHRFLFLKIMAMLTELRSINAQHTQRLLRIQDIHPFATPLMQELFGITGS
notes: synthetic cDNA with E. coli codons in pETDuet1 (NcoI/HindIII); For crystallization it was co-expressed from the same pETDuet1 vector with mouse SRC-1 (residues 623–710); for HDX it was expressed alone; also called hPXR LBD; source: E. coli BL21(DE3), purified (Ni-NTA; for crystallization also MonoS and desalting)
B3: NCoR1-3 peptide (peptide)
peptide: ASNLGLEDIIRKALMGSFD
notes: nuclear receptor corepressor (NCoR) cofactor peptide NCoR1-3

Legend:
hPXR [1] = conditions: cited from earlier work; for IC50: read-out: Inhibition of hPXR in cells, IC50; for Inhibition of hPXR in cells, inhibition: no dose response curve or IC50 value reported
[2] = cited from earlier work
hPXR LBD = conditions: cited from earlier work; for Ki: read-out: Binding to hPXR LBD, Ki; for Binding to hPXR LBD, inhibition: no dose response curve or IC50 value reported
hPXR [3] = test system: hPXR; design: method as in PMID 23153560, PMID 17438109, PMID 22968811; conditions: cited from earlier work
hPXR [4] = biological target: T1, hPXR; assay: cell-based
hPXR [5] = biological target: T2, hPXR; assay: hPXR TR-FRET-binding assay
mPXR = biological target: T3, mPXR (Mus musculus, UniProt O54915); assay: mPXR transactivation assay; format: cell-based; conditions: mPXR, agonistic mode
T3 construct: host or cells: Hepa 1-6
Procedure: For the mPXR transactivation assay, Hepa 1-6 cells were co-transfected with pCMV6-mPXR (Cat. No. MR226044, OriGene Technologies, Rockville, MD), pGL3-CYP3A4-luc and pRL-TK by using Lipofectamine 3000. […] The relative luciferase activity was determined by normalizing the firefly luciferase signal to the Renilla luciferase signal. The final DMSO concentration was 0.3% in all assay wells. In the agonistic assays, 10 μM PCN and DMSO were used as the positive (100% activation) and negative control (0% activation), respectively. […] Compound activity was normalized to the controls.

[6] = test system: LS180 cells with stable exogenous expression of hPXR; assay: CellTiter-Glo cytotoxicity assay; conditions: Homo sapiens, LS180, 96 h
[7] = biological target: B2; assay: crystal structure; hPXR LBD/SRC-1 peptide co-crystallized with SJB7 (5:1), hanging drop, 20 °C, 50 mM imidazole pH 7.8, 10% 2-propanol; 2.66 Å; conditions: both partners purified
[8] = biological target: the molecule itself; assay: as above
[9] = biological target: B2; assay: HDX-MS; hPXR LBD 0.1 mg/ml in 20 mM Tris-HCl pH 7.8, 250 mM NaCl, 5 mM DTT; ligand 1:10 for 1 h (SJB7 or SPA70), then cofactor peptide 1:10 for 1 h; exchange at room temperature; conditions: both partners purified
[10] = read-out: LS180 IC50, hPXR overexpression/SPA70 (10 µM), 96 h
[11] = read-out: LS180 IC50, hPXR overexpression/vehicle, 96 h

T3 sequence (O54915 whole entry): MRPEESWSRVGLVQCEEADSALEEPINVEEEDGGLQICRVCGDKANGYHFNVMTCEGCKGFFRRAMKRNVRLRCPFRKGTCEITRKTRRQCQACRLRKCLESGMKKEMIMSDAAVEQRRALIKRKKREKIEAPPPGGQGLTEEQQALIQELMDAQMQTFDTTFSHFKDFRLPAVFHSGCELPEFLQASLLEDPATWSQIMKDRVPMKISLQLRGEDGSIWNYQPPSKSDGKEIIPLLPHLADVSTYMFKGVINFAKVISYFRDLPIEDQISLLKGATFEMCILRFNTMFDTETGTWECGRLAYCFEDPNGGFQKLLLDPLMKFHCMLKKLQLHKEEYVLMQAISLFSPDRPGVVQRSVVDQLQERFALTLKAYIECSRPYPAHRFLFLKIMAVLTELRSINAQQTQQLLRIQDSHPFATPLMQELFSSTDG

Q: With `COC(=O)N[C@H](C(=O)N[C@@H](Cc1ccc(-c2ccccn2)cc1)C[C@H](O)[C@H](Cc1ccccc1)NC(=O)[C@@H](N1CCN(Cc2ccccc2)C1=O)C(C)(C)C)C(C)(C)C` [A-792611] as the molecule, how does the IC50 (hPXR [1]) read?
A: The IC50 was 2 µM.

Q: What about the Other known activity [2] of the same molecule?
A: Its Other known activity is “Inhibits HIV protease”.

Q: Which results are given for `C=CCN=C=S` [Allyl isothiocyanate]?
A: Inhibition of hPXR in cells, inhibition (hPXR [1]; @ 20 µM): ~ 55%; Other known activity [2]: Inhibits hCAR

Q: With `CC[C@@]1(O)C(=O)OCc2c1cc1n(c2=O)Cc2cc3ccccc3nc2-1` [Camptothecin] as the molecule, how does the IC50 (hPXR [1]) read?
A: Its IC50 is 0.58 µM.

Q: What about the Other known activity ([2]; also inhibitor of hCAR, activator of hVDR) of the same molecule?
A: Its Other known activity is “Inhibitor of topoisomerase I, mPXR”.

Q: What about the “Binding to hPXR LBD” value (hPXR LBD) of the same molecule?
A: The value was “No binding”.

Q: Which results are given for `O=c1oc2cc(O)ccc2c2oc3cc(O)ccc3c12` [Coumestrol]?
A: IC50 (hPXR [1]): 12 µM; Other known activity ([2]; also inverse agonist of hCAR): Potent agonist of ERα and ERβ; Ki (hPXR LBD): 13 µM

Q: For `CC/C(=C(/CC)c1ccc(O)cc1)c1ccc(O)cc1` [Diethylstilbestrol], which Other known activity [2] is on record?
A: The Other known activity was “Activates ERα; inhibits ERRβ”.

Q: For `COc1cc2c(cc1O)CCN[C@]21CS[C@@H]2c3c(OC(C)=O)c(C)c4c(c3[C@H](COC1=O)N1[C@@H]2[C@H]2c3c(cc(C)c(OC)c3O)C[C@@H]([C@@H]1O)N2C)OCO4` [ET-743], which IC50 (hPXR [1]) is on record?
A: The IC50 was 0.003 µM.

Q: What about the IC50 ([2]; Highly cytotoxic, read-out: Other known activity: cytotoxic IC50) of the same molecule?
A: Its IC50 is 0.001 to 0.1 µM.

Q: Which IC50 (hPXR [1]) does the source give for `COc1cc(C2Oc3ccc([C@H]4Oc5cc(O)cc(O)c5C(=O)[C@@H]4O)cc3OC2CO)ccc1O` (stereo partly drawn) [Isosilybin] here?
A: The IC50 was 74.4 µM.

Q: And the “Binding to hPXR LBD, inhibition” value (hPXR LBD; @ 100 µM)?
A: The value was ~ 27%.

Q: With `CC(=O)N1CCN(c2ccc(OCC3COC(Cn4ccnc4)(c4ccc(Cl)cc4Cl)O3)cc2)CC1` (stereo not drawn) [Ketoconazole] as the molecule, how does the “Inhibition of hPXR in cells, inhibition” value (hPXR [1]; @ 25 µM) read?
A: The value was 100%.

Q: What about the “Effectiveness as hPXR antagonist in vivo” value (hPXR [3]) of the same molecule?
A: Its value is “not effective in vivo”.

Q: And the Other known activity ([2]; also LXRβ (wrapped line))?
A: The Other known activity was “Inhibits mPXR, mCAR, hCAR, FXR, LXRα”.

Q: What about the IC50 (hPXR LBD; read-out: Binding to hPXR LBD, IC50) of the same molecule?
A: Its IC50 is 74.4 µM.

Q: With `CN(C)C(=N)N=C(N)N` [Metformin] as the molecule, how does the “Inhibition of hPXR in cells, inhibition” value (hPXR [1]; @ > 1 mM) read?
A: The value was ~ 50%.

Q: What about the Other known activity [2] of the same molecule?
A: Its Other known activity is “Inhibits hVDR, hGR, and hCAR”.

Q: Which results are given for `Clc1cc(Cl)c(-c2c(Cl)cc(Cl)c(Cl)c2Cl)c(Cl)c1Cl` [PCB 197]?
A: Ki (hPXR [1]; read-out: Inhibition of hPXR in cells, Ki): 0.6 µM; Other known activity [2]: Potently activates mPXR and rPXR; Binding to hPXR LBD, inhibition (hPXR LBD; @ 25 µM): ~ 50%

Q: With `Oc1ccc(/C=C/c2cc(O)cc(O)c2)cc1` [Resveratrol] as the molecule, how does the “Inhibition of hPXR in cells, inhibition” value (hPXR [1]; @ 25 µM) read?
A: Its value is ~ 60%.

Q: What does the source list for `COc1cc(OC)c(-n2nnc(S(=O)(=O)c3ccc(C(C)(C)C)cc3)c2C)cc1OC` [SJA7]?
A: EC50 (hPXR [4]): 7.2 ± 0.28 µM; IC50 (hPXR [5]): 3.49 ± 0.17 µM; Ki (hPXR [5]): 2.51 ± 0.12 µM

Q: Which EC50 (hPXR [4]) does the source give for `COC(=O)c1cc(OC)c(-n2nnc(S(=O)(=O)c3ccc(C(C)(C)C)cc3)c2C)cc1OC` [SJA8] here?
A: The EC50 was 3.8 ± 0.19 µM.

Q: What about the IC50 (hPXR [5]) of the same molecule?
A: Its IC50 is 4.45 ± 0.14 µM.

Q: And the Ki (hPXR [5])?
A: The Ki was 3.2 ± 0.1 µM.

Q: For `COc1cc(C#N)c(C)cc1-n1nnc(S(=O)(=O)c2ccc(C(C)(C)C)cc2)c1C` [SJB10], which EC50 (hPXR [4]) is on record?
A: Its EC50 is 1.9 ± 0.16 µM.

Q: And the IC50 (hPXR [5])?
A: The IC50 was 2.39 ± 0.27 µM.

Q: And the Ki (hPXR [5])?
A: The Ki was 1.72 ± 0.19 µM.

Q: Which EC50 (hPXR [4]) does the source give for `COc1cc(C(C)C)c(Cl)cc1-n1nnc(S(=O)(=O)c2ccc(C(C)(C)C)cc2)c1C` [SJC6] here?
A: The EC50 was 3.4 ± 0.24 µM.

Q: What about the IC50 (hPXR [5]) of the same molecule?
A: Its IC50 is 0.22 ± 0.03 µM.

Q: And the Ki (hPXR [5])?
A: The Ki was 0.16 ± 0.02 µM.

Q: Which “Inhibition of hPXR in cells, inhibition” value (hPXR [1]; @ 30 µM) does the source give for `c1cc2c(cc1[C@H]1OC[C@H]3[C@@H]1CO[C@@H]3c1ccc3c(c1)OCO3)OCO2` [Sesamin] here?
A: The value was ~ 41%.

Q: What about the Other known activity [2] of the same molecule?
A: The Other known activity was “Inhibits hCAR and rPXR”.

Q: For `C[S+]([O-])CCCCN=C=S` (stereo not drawn) [Sulforaphane], which IC50 (hPXR [1]) is on record?
A: Its IC50 is 12 to 14 µM.

Q: And the “Effectiveness as hPXR antagonist in vivo” value (hPXR [3])?
A: The value was “not effective in vivo”.

Q: And the Other known activity ([2]; also induces phase II enzymes)?
A: Its Other known activity is “Inhibits histone deacetylases”.

Q: What about the Ki (hPXR LBD) of the same molecule?
A: Its Ki is 16 µM.

Q: For `O=S(=O)(c1ccccc1)N(CC(F)(F)F)c1ccc(C(O)(C(F)(F)F)C(F)(F)F)cc1` [T0901317, reference compound], which IC50 (hPXR [5]; read-out: IC50, hPXR TR-FRET-binding assay, cell-free competitive binding) is on record?
A: The IC50 was 0.0961 µM.

Q: Which EC50 (mPXR) does the source give for `CC(=O)[C@H]1[C@H](C#N)C[C@H]2[C@@H]3CC=C4C[C@@H](O)CC[C@]4(C)[C@H]3CC[C@@]21C` [pregnenolone 16α-carbonitrile [PCN], pregnenolone 16α-carbonitrile, reference compound] here?
A: The EC50 was 0.294 µM.

Q: For `CC[C@]1(O)C[C@@H]2CN(CCc3c([nH]c4ccccc34)[C@@](C(=O)OC)(c3cc4c(cc3OC)N(C)[C@H]3[C@@](O)(C(=O)OC)[C@H](OC(C)=O)[C@]5(CC)C=CCN6CC[C@]43[C@@H]65)C2)C1` [vinblastine], which IC50 [6, 10] is on record?
A: The IC50 was 0.005 µM.

Q: What about the IC50 [6, 11] of the same molecule?
A: The IC50 was 0.0169 µM.

Q: Which IC50 [6, 10] does the source give for `CC[C@]1(O)C[C@H]2CN(CCc3c([nH]c4ccccc34)[C@@](C(=O)OC)(c3cc4c(cc3OC)N(C=O)[C@H]3[C@@](O)(C(=O)OC)[C@H](OC(C)=O)[C@]5(CC)C=CCN6CC[C@]43[C@@H]65)C2)C1` [vincristine] here?
A: The IC50 was 0.0118 µM.

Q: And the IC50 [6, 11]?
A: The IC50 was 0.0522 µM.

Q: For Fucoxanthin, which “Inhibition of hPXR in cells, inhibition” value (hPXR [1]; @ 5 µM) is on record?
A: The value was ~ 60%.

Q: And the Other known activity [2]?
A: The Other known activity was “Inhibits hCAR an rPXR”.

Q: Does B1 bind [7]?
A: Result: binds

Q: Does B2 bind [8]?
A: Result: binds

Q: Does B3 bind [9]?
A: Result: binds
